Reference: US20040132969A1, “Antibodies, peptides, analogs and uses thereof” (priority 2000, published 2004)
Entries after “also recorded” stand apart in the source; their conditions may differ. Where no end group is shown, it is not given here.

Columns and labels:
[1] = system: HUVEC and fibroblasts; assay: BrdU ELISA cell proliferation cytotoxicity assay; assay type: cell-based, human; conditions: for cytotoxicity / cell proliferation, BrdU assay: HUVEC and fibroblast monocultures, 24 hours
Method: (§1) In order to determine whether the fibrin E analogue peptides WTM33, WTM34, WTM35, WTM36, and WTM37 are cytotoxic when applied to the HUVEC and fibroblasts used in the Angiosys™ angiogenesis assay, these reagents were examined in two different cytotoxicity assays. To simplify performance of these assays and discriminate between fibroblasts and HUVEC, cells were grown in monocultures rather than together and then treated with the experimental reagents as described below.
Cytotoxicity of the fibrin E peptide analogues was also determined by examining cell proliferation, using a commercial BrdU ELISA (Roche Molecular Biochemicals) performed according to the manufacturer's instructions. This assay quantifies DNA synthesis as a measure of cellular proliferation, as stimulation or inhibition of cell replication will require a concomitant change in the rate of DNA synthesis. Measurement of DNA synthesis is achieved by incubating proliferating cells in medium in which thymidine has been replaced with the pyrimidine analogue 5-bromo-2′-deoxyuridine (BrdU). Once incorporated into the cellular DNA, BrdU is measured by immunoassay. Briefly, HUVEC and fibroblasts were seeded as monocultures into 96 well plates at a density of 5×10^3 cells per well, to a final volume of 100 μl per well in endothelial cell culture medium. At the end of an initial culture period of 72 hours under standard conditions, while the cells were still proliferating, fibrin E analogue peptides were added to a range of final concentrations, as shown in the FIG. 8. Each treatment concentration of each peptide was administered to four replicate wells. Control cells received standard medium without test compounds. The cells were incubated for 24 hours with the test compounds, before 10 μl of stock BrdU solution (100 μM) was added to give a final concentration of 10 μM BrdU, and the cells were incubated for a further 2 hours. The test medium was then removed from the cells and replaced with 200 μl per well of Fixing/Denaturing solution, which was incubated on the cells for a further 30 minutes at room temperature. This was then replaced with 100 μl per well anti-BrdU-POD (mouse monoclonal clone BMG 6H8, Fab fragments conjugated to peroxidase) prepared as directed, which was left on the cells for a further 90 minutes at room temperature. The antibody conjugate was then removed from the wells by rinsing three times in 200 μl per well of washing buffer (PBS) before 100 μl well substrate solution (tetramethyl-benzidine) was added and incubated at room temperature until colour development was sufficient for photometric detection (approximately 15 minutes). Absorbance at 370 nm was measured on a multi-well plate ELISA plate reader (Dynatech), with a reference wavelength of 492 nm. Mean absorbance values from each group of four wells were calculated and expressed as a percentage±standard deviation of the mean value obtained from control wells incubated in the absence of fibrin E analogue peptide.

[2] = system: HUVEC and fibroblasts; assay: Neutral Red cell metabolism cytotoxicity assay; assay type: cell-based, human; conditions: for cytotoxicity / cell viability, Neutral Red assay: HUVEC and fibroblast monocultures, 72 hours
Method: as §1
A Neutral Red cell metabolism assay was used to determine the cytotoxicity to HUVEC and fibroblasts of the fibrin E analogue peptides. This assay works on the basis of colorimetric measurement of a red dye which, is reported to be taken up into the lysosomes of uninjured cells. Thus the stronger the colour signal obtained from a well of cells, the greater the percentage of cells remaining viable within that well. HUVEC cells were inoculated into wells of 96 wells at a density of 5×10^3 cells per well, in endothelial cell culture medium. Fibroblasts were similarly seeded 5×10^3 cells per well. The cells were incubated for 24 hours under standard conditions to permit adherence and growth, and then treated for 72 hours with fresh medium containing fibrin E peptides over the same range of concentrations used in the Angiosys™ angiogenesis assay. For each concentration of each of the six peptides, four replicate wells of each cell type were treated and then assayed. Following incubation with the test compounds, the medium was removed and replaced with 200 μl per well of fresh medium containing 3.57 mg neutral red per 100 ml. The cells were incubated with this neutral red solution for 3 hours, after which this solution was decanted and replaced with 100 μl 1% formaldehyde/1% CaCl2. This was rapidly decanted and replaced in turn with 200 μl 50% ethanol/1% acetic acid, which was incubated at room temperature for 30 minutes to extract the neutral red from the cells. The plates were then read in a 96 well plate-format spectrophotometer, measuring absorbance at 540 nm. Mean absorbance values from each group of four wells were calculated and expressed as a percentage±standard deviation of the mean value obtained from control wells incubated in the absence of fibrin E analogue peptide.

[3] = system: Chick fibroblasts, Cos7, mouse 3T3 and human embryonic lung cells (HEL); assay: Cell binding assays (absorbance at 405 nm); conditions: 0-30 mg per well; 6 hours; each of the cell types
Method: Chick fibroblasts, Cos7, mouse 3T3 and human embryonic lung cells (HEL) were cultured in a 25 cm^2 flask (Nunc) until confluent (approximately 3×10^6 cells). The cells were trypsinised and resuspended at concentration of 1.3×10^5 cells/ml. 200 μl of this cell suspension was added to each well of a 96 well culture plate (Nunc). The cells were incubated overnight at 37° C. to allow adherence and recovery. The cells were then divided into three sections, digoxygenin controls, PBS controls and digoxygenin labelled fragment E tests. Increasing concentrations of digoxygenin and digoxygenin labelled fibrin fragment E were applied from 0-30 mg per well. The plates were incubated for 6 hours at 37° C. under culture conditions.
The plates were emptied of media and washed three times with PBS. The cells were then incubated for 2 hours with sheep antidigoxygenin alkaline phosphatase and developed with p-nitrophenyl phosphate in bicarbonate buffer pH 9.8. The plates were read on a Titertek Multiscan plate reader at 405 nm.

[4] = system: Chick fibroblasts; assay: Cell immunohistochemistry; assay type: binding; conditions: 8 mg per ml; 2 hours
Method: Chick fibroblasts were cultured in a 25 cm^2 flask (Nunc) until confluent (approximately 3×10^6 cells). The cells were washed in PBS and then trypsinised and diluted to 3×10^5 cells per ml in Dulbecco modified medium with 10% foetal calf serum. […] of the cells suspension was plated into each well of a Nunc culture well slide. The cells were incubated overnight to allow adhesion and recovery from the passaging. Digoxygenin labelled fibrin fragment E was added to a final concentration of 8 mg per ml. Control wells contained unconjugated digoxygenin and PBS.
The cells were rinsed after 2 hours with PBS then washed 3 times in TBS followed by one wash in distilled water. The cells were then incubated for 2 hours with sheep anti-digoxygenin alkaline phosphatase. The slides were then washed three times in TBS and developed with NBT and BCIP in bicarbonate buffer pH 9.8. The slides were air dried and then mounted for observation of membrane staining under the microscope.

Row | Molecule | cytotoxicity / cell survival, BrdU assay ([1]; 3, 12, 100 μg/ml) | cytotoxicity / cell proliferation, BrdU assay [1] | cytotoxicity / cell survival, Neutral Red assay ([2]; 3, 12, 100 μg/ml) | cytotoxicity / cell viability, Neutral Red assay [2] | cell proliferation, BrdU assay ([1]; higher concentrations) | binding to cells (absorbance at 405 nm compared to controls) [3] | binding to cells (membrane staining) [4]
1 | SLRPAPPPISGGGYR [WTM33, SLRPAPPPISGGGYR] | no effect on survival of either cell type | not cytotoxic | no effect on survival of either cell type | not cytotoxic | – | – | –
2 | SSSSFQYMYLL [WTM37, SSSSFQYMYLL] | – | no toxicity to either cell type | – | no toxicity to either cell type | – | – | –
3 | QLQEALLQQERPIRN [WTM35, QLQEALLQQERPIRN] | – | not cytotoxic; also recorded: no toxicity | – | not cytotoxic; also recorded: no toxicity | – | – | –
4 | SVDELNNNVEAVSQT [WTM36, SVDELNNNVEAVSQT] | – | not cytotoxic; also recorded: exhibited an effect on the cell proliferation | – | not cytotoxic; also recorded: no reduction in the viability of the cells | potential for reduction in cell proliferation | – | –
5 | fibrin fragment E: fibrin fragment E (55 kD), used digoxygenin labelled in binding experiments (protein) chain 1: GPRVVERHQSACKDSDWPFCSDEDWNYKCPSGCRMKGLIDEVNQDFTNRINKLKNSLFEYQK chain 2: GHRPLDKKREEAPSLRPAPPPISGGGYRARPAKAAATQKKVERKAPDAGGCLHADPDLGVLCPTGCQLQEALLQQERPIRNSVDELNNNVEAVSQTSSSSFQYMYLLK chain 3: YVATRDNCCILDERFGSYCPTTCGIADFLSTYQTKVDKDLQSLEDILHQVENKTSEVKQLIK | – | – | – | – | – | high absorbance | shown to bind
